Experimental data taken from patent publication US20140275969A1, “FUNCTIONAL BROWN ADIPOSE TISSUE IMAGING TECHNIQUE” (GENERAL ELECTRIC COMPANY, priority 2013, published 2014).
“Also recorded” adds a separate entry of the source. Marks after values point to notes of the source that are not given here.

Tests used:
kidneys = assay: Hyperpolarized 13C MR imaging after norepinephrine stimulation, kidney ROI; type: in vivo, male Sprague-Dawley rats
Description: (§1) The following experimental results are from studies using male Sprague-Dawley rats (n=5, weight=336 g, SD=66 g) that were assessed for brown adipose tissue activation and assessment according to certain embodiments of the disclosure. The animals were kept at an ambient room temperature of 22° C. Ketamine/xylazine was used for anesthesia, with periodic intramuscular re-administration to maintain anesthesia (80-100 mg/kg ketamine, 8-10 mg/kg xylazine). Blood oxygen saturation and heart rate were monitored using a peripheral pulse oximeter placed on the tail. The body temperature of the animal was maintained throughout the imaging procedures using a heated water pad.
(§2) The animals were scanned in the supine position using a 3T GE MR750 scanner (GE Healthcare, Waukesha, Wis.). A micro-strip dual-tuned ^1H/^13C rat coil (Magvale, San Francisco, Calif.) was used. The rat was positioned so that the heart was in the centre of the coil, taking care to position the dorsal interscapular fat pad to remain within the sensitive region of the coil. A T2-weighted fast spin echo (FSE) (TE, 87 ms; TR, 5 s; matrix size, 192×160; FOV, 12×12 cm^2; slice thickness, 3 mm) sequence was used to obtain an anatomical reference for co-registration. A 2D FSE IDEAL sequence (TR, 5 s; matrix size, 192×160; FOV, 12×12 cm^2, slice thickness, 3 mm) was used to obtain water and fat images.
(§3) Hyperpolarized ^13C MR imaging scans were performed following intravenous tail vein infusions of 2.0 mL/80 mM pre-polarized [1-^13C] pyruvate. Pyruvate was injected over 10 seconds, with the MR imaging acquisition started simultaneously with the start of injection. Hyperpolarized scans were performed during baseline (n=5) and stimulated (n=3) conditions, 15 minutes after 2.5 mg/kg intraperitoneal norepinephrine (NE) injection, separated by approximately 1 hour to prepare the hyperpolarized sample. Pyruvate, bicarbonate, and lactate were imaged in an axial orientation using a multi-slice, single-shot, time-resolved 13C spiral imaging pulse sequence previously developed for large animal cardiac imaging (TR, 5 s; FOV, 48×48 cm^2; in-plane resolution, 6.8×6 8 mm^2; 6 slices, slice thickness/spacing, 10 mm/1 mm; pyruvate FA 10°, bicarbonate and lactate FA 60°; scan time, 1 min) (18, 24, 25). Each metabolic volume was acquired once during each TR, giving a total of 12 frames.
(§4) ROIs were drawn using the T2-weighted anatomical images, over the heart, kidneys, and in the dorsal interscapular region, a known depot of BAT in rodents. The ^13C image intensity in these ROIs were normalized to the temporal maximum pyruvate signal in the heart, and corrected for nominal FA by dividing by sin(FA). Statistical significance between baseline and norepinephrine stimulated conditions were assessed using a two-tailed, unpaired Student's t-test. Statistical significance was considered at the P<0.05 level.

heart = assay: Hyperpolarized 13C MR imaging after norepinephrine stimulation, heart ROI; type: in vivo, male Sprague-Dawley rats
Description: as §1, §2, §3, §4

[1] = system: brown adipose tissue (BAT-associated dorsal interscapular region); assay: Hyperpolarized 13C MR imaging of brown adipose tissue activation after norepinephrine stimulation; type: in vivo, male Sprague-Dawley rats
Description: as §1, §2, §3, §4
To separate the effect from the effect of a change in perfusion, the dynamic data was fit on a voxel-by-voxel basis to obtain the apparent rate constants for pyruvate-to-bicarbonate conversion (kpyr,bic, s^−1) and pyruvate-to-lactate exchange (kpyr,lac, s^−1).

[2] = human full blood at 37 degrees C.; cited from earlier work
[3] = BAT-associated dorsal interscapular region, voxel-by-voxel fit of dynamic data

SMILES	Maximum bicarbonate to maximum cardiac pyruvate signal ratio (kidneys; kidney, 15 minutes after 2.5 mg/kg intraperitoneal norepinephrine, n = 2, mean±SD)	Maximum lactate to maximum cardiac pyruvate signal ratio (kidneys; kidney, 15 minutes after 2.5 mg/kg intraperitoneal norepinephrine, n = 3, mean±SD)	13C bicarbonate signal change following norepinephrine stimulation, relative to substrate signal in the heart (kidneys; kidney, in words)	Increase in hyperpolarized lactate signal versus baseline (kidneys; kidneys, P<0.05) [fold]	Hyperpolarized [1-13C] lactate signal change following norepinephrine infusion (kidneys; kidneys, in words)	Maximum bicarbonate to maximum cardiac pyruvate signal ratio (heart; 15 minutes after 2.5 mg/kg intraperitoneal norepinephrine, n = 2, mean±SD)	Maximum lactate to maximum cardiac pyruvate signal ratio (heart; 15 minutes after 2.5 mg/kg intraperitoneal norepinephrine, n = 3, mean±SD)	Increase in hyperpolarized lactate signal versus baseline (heart; P<0.001) [fold]	Hyperpolarized [1-13C] lactate signal change following norepinephrine infusion (heart; in words)	13C bicarbonate signal change following norepinephrine stimulation, relative to substrate signal in the heart (heart; in words, listed as NE)	13C bicarbonate signal change following norepinephrine stimulation, relative to substrate signal in the heart (heart; in words, listed as norepinephrine)	13C bicarbonate signal change following norepinephrine stimulation, relative to substrate signal in the heart ([1]; BAT-associated dorsal interscapular region, in words)	Difference in apparent pyruvate-to-bicarbonate conversion rate (kpyr,bic) versus baseline [1, 3] [fold]	Difference in apparent pyruvate-to-lactate conversion rate (kpyr,lac) versus baseline [1, 3] [fold]	Increase in hyperpolarized [1-13C] lactate (lactate-to-pyruvate ratio) versus baseline ([1]; BAT-associated interscapular region, P<0.001) [fold]	Increase in hyperpolarized 13C bicarbonate (bicarbonate-to-pyruvate ratio) versus baseline ([1]; BAT-associated interscapular region, P<0.01) [fold]	Hyperpolarized [1-13C] lactate signal change following norepinephrine infusion ([1]; dorsal interscapular region, in words)	Maximum bicarbonate to maximum cardiac pyruvate signal ratio ([1]; interscapular region, 15 minutes after 2.5 mg/kg intraperitoneal norepinephrine, n = 2, mean±SD)	Maximum lactate to maximum cardiac pyruvate signal ratio ([1]; interscapular region, 15 minutes after 2.5 mg/kg intraperitoneal norepinephrine, n = 3, mean±SD)	T1 relaxation [2]
NC[C@H](O)c1ccc(O)c(O)c1 [Norepinephrine, norepinephrine]	0.0036 ± 0.0028^ns	0.0625 ± 0.0130	decreased	1.9	Increases	0.0099 ± 0.0032^ns	0.0816 ± 0.0191	4.0	Increases	remained constant	remained constant; also recorded: not statistically significant	increased	3.4	4.0	4.0	4.3	Increases	0.0047 ± 0.0010*^	0.0543 ± 0.0051	
CC(=O)[13C](=O)O [^13C1-pyruvate, [1-^13C] pyruvate]																				about 42 s
